Test system: Bromodomains BRD2, BRD3, BRD4 and BRDT (BD1/BD2 single residue mutants)
Assay: Binding of the fluoroligand to mutated versus non-mutated bromodomain
Parameters: species or system Human
Conditions: single residue mutations in the acetyl lysine binding pocket
Description: Binding was assessed using a time resolved fluorescent resonance energy transfer binding assay. This utilises a 6 His purification tag at the N-terminal of the proteins as an epitope for an anti-6 His antibody labeled with Europium chelate (PerkinElmer AD0111) allowing binding of the Europium to the proteins which acts as the donor fluorophore. A small molecule, high affinity binder of the bromodomains BRD2, BRD3, BRD4 and BRDT has been labeled with Alexa Fluor647 (Reference Compound X) and this acts as the acceptor in the FRET pair.
The binding of the compounds of formula (I) to Bromodomains BRD2, BRD3, BRD4 and BRDT was assessed using mutated proteins to detect differential binding to either Binding Domain 1 (BD1) or Binding Domain 2 (BD2) on the bromodomain. These single residue mutations in the acetyl lysine binding pocket greatly lower the affinity of the fluoroligand (Reference Compound X) for the mutated domain (>1000 fold selective for the non-mutated domain). Therefore in the final assay conditions, binding of the fluoroligand to the mutated domain cannot be detected and subsequently the assay is suitable to determine the binding of compounds to the single non-mutated bromodomain. […]

## COc1ccc2c(c1)C(c1ccc(Cl)cc1)=N[C@@H](CC(=O)NCCCCCNC(=O)CCCCCC1(C)/C(=C/C=C/C=C/C3=[N+](CCCCS(=O)(=O)O)c4ccc(S(=O)(=O)O)cc4C3(C)C)N(CCCCS(=O)(=O)[O-])c3ccc(S(=O)(=O)O)cc31)c1nnc(C)n1-2 (stereo partly shown) [Reference Compound X]
  selectivity of the fluoroligand for the non-mutated domain over the mutated domain: > 1000 fold
